Measurements reported in patent US20130029991A1, “New Phenylsulfamoyl Benzamide Derivatives as Bradykinin Antagonists” (priority 2006, published 2013).
Structures can show the parent of a compound that is named as a salt. Where two headings read alike, the source gives them in different places. One block for each molecule: values may come before it.

Columns and labels:
[1] = biological target: T1, recombinant human B1 receptors (Homo sapiens, UniProt P46663); test: Functional assay: antagonist potency by cytosolic calcium measurement (fluo-4, plate reader fluorimeter) in CHO-B1 cells; format: cell-based
T1 construct: host or cells: CHO (CHO-B1)
T1 sequence (P46663 1-353): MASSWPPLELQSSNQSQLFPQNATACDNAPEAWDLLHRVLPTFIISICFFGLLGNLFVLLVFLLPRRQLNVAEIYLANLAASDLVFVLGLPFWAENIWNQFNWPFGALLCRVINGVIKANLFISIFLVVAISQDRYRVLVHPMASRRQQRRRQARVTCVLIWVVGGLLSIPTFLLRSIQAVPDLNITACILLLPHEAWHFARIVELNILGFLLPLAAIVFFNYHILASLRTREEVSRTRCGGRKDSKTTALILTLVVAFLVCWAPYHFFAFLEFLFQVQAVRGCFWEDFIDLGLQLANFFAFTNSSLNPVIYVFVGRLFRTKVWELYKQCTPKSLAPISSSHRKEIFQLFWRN
Experimental: Assessment of Antagonist Potency at B1 and B2 Receptors In Vitro by Measurement of Cytosolic Calcium Ion Concentration with a Plate Reader Fluorimeter in Cells Expressing Recombinant Human B1 or B2 Receptors
Chinese hamster ovary (CHO) cells stably expressing recombinant human B1 (CHO-B1, Euroscreen) or B2 (CHO-B2, Perkin-Elmer) receptors were cultured in Dulbecco's Modified Eagle's Medium (DMEM) containing 10% Fetal Calf Serum (FCS), 100 U/ml penicillin, 0.1 mg/ml streptomycin, 0.25 μg/ml amphotericin B, 1% Minimum Essential Medium Eagle (MEM), non essential amino acid solution, […], 1% pyruvate (for the B2 cell line). Cells were kept at 37° C. in a humidified incubator in an atmosphere of 5% CO2/95% air and were passaged 1:4 three times a week. Cells were plated at 1.5-2.5×10^4 cell/well on standard 96-well microplates, measurements of cytosolic calcium ion concentration ([Ca^2+]i) were carried out 1-2 days after cell plating.
Measurements of [Ca^2+]i were carried out on CHO-B1 and CHO-B2 cells stably expressing human B1 and B2 receptors, respectively. Cells were grown in standard 96-well microplates and before the measurement were loaded with a fluorescent Ca^2+-sensitive dye, fluo-4/AM (2 μM): after removing the culture medium the dye was added to the cells (dissolved in assay buffer: 145 mM NaCl, 5 mM KCl, 2 mM MgCl2, 2 mM CaCl2, 10 mM HEPES, 20 mM D-glucose, 2 mM probenecid, 100 μl/well) and cells were incubated at 37° C. in a humidified incubator in an atmosphere of 5% CO2/95% air for 40-120 min. To stop dye loading cells were washed twice with assay buffer. After washing, various concentrations of the test compounds (diluted in extracellular medium from a DMSO stock solution, final DMSO concentration was <0.1%) or buffer were added to each well depending on the experimental setup. After incubation at 37° C. for 20-25 min. baseline and agonist-evoked changes of [Ca^2+]i were measured column by column with a plate reader fluorimeter (Fluoroskan Ascent, Labsystems). Excitation and detection of emission was carried out from the bottom of the plate. Filters used for Fluo-4: excitation filter—485 nm, emission filter—538 nm. The whole measurement process was performed at 37° C. and was controlled by custom software Inhibitory potency of the test compounds was assessed by measuring the reduction in the agonist-evoked [Ca^2+]i-elevation in the presence of different concentrations of the compounds. The agonists were LysDABK for CHO-B1, and bradykinin for CHO-B2 cells. Agonists were applied at an EC80 concentration, the EC80-values were derived from daily determined dose-response curves. Fluorescence data were expressed as ΔF/F (fluorescence change normalized to baseline). All treatments on a single plate were measured in multiple wells. Data from all wells with the same treatment were averaged and the average values were used for analysis. Inhibitory potency of a compound at a single concentration point was expressed as percent inhibition of the control agonist response. Sigmoidal concentration-inhibition curves were fitted to the data (derived from at least three independent experiments) and IC50-values were determined as the concentration that produces half of the maximal inhibition caused by the compound.

[2] = biological target: T2, human recombinant bradykinin B1 receptor (Homo sapiens, UniProt P46663); test: Human recombinant bradykinin B1 receptor binding
T2 construct: host or cells: CHO cells
T2 sequence (P46663 1-353): T1 sequence (P46663 1-353)
Experimental: 1. Human Recombinant Bradykinin B1 Receptor Binding
Binding assays were carried out on human recombinant bradykinin) receptors (expressed in CHO cells) according to the Euroscreen Technical Data Sheet (Cat.No.:ES-091). 20 μg protein/tube was incubated with [3,4-prolyl-3,4-^3H(N)]-[Des-Arg^10] Kallidin as radioligand. Non specific binding was determined in the presence of 10 μM Lys-des-Arg^9-Bradykinin. The final incubation volume was 250 μl. Samples were incubated for 15 min. at 25° C. then were rapidly vacuum filtered through GF/B filters presoaked for at least 1 h in 0.5% PEI. Radioactivity was determined by liquid scintillation spectroscopy.

[3] = CHO-B1 cells, inhibition of LysDABK (EC80)-evoked [Ca2+]i elevation, read-out: B1 func.
[4] = CHO cell membranes, [3H]-[Des-Arg10] Kallidin radioligand, read-out: B1 binding

SMILES: CN(C)CCCNC(=O)CNC(=O)c1ccc(S(=O)(=O)Nc2ccccc2Oc2ccc(Cl)cc2Cl)cc1 [Example 25, 4-[2-(2,4-Dichloro-phenoxy)-phenylsulfamoyl]-N-[(3-dimethylamino-propylcarbamoyl)-methyl]-benzamide]
IC50 [1, 3]: < 20 nM | Ki [2, 4]: < 20 nM

SMILES: O=C(CNC(=O)c1ccc(S(=O)(=O)Nc2ccccc2Oc2ccc(Cl)cc2Cl)cc1)NCCCCN1CCCCC1 [Example 63, 4-[2-(2,4-Dichloro-phenoxy)-phenylsulfamoyl]-N-[(4-piperidin-1-yl-butylcarbamoyl)-methyl]-benzamide]
IC50 [1, 3]: < 20 nM | Ki [2, 4]: < 20 nM

SMILES: O=C(CNC(=O)c1ccc(S(=O)(=O)Nc2ccccc2Oc2ccc(Cl)cc2Cl)cc1)NCCN1CCOCC1 [Example 30, 4-[2-(2,4-Dichloro-phenoxy)-phenylsulfamoyl]-N-[(2-morpholin-4-yl-ethylcarbamoyl)-methyl]-benzamide]
IC50 [1, 3]: < 20 nM | Ki [2, 4]: < 20 nM

SMILES: O=C(CNC(=O)c1ccc(S(=O)(=O)Nc2ccccc2Oc2ccc(Cl)cc2Cl)cc1)NC1CCNCC1 [Example 60, 4-[2-(2,4-Dichloro-phenoxy)-phenylsulfamoyl]-N-(piperidin-4-ylcarbamoylmethyl)-benzamide hydrochloride]
IC50 [1, 3]: < 20 nM | Ki [2, 4]: < 20 nM

SMILES: CN(C)CCCNC(=O)CNC(=O)c1ccc(S(=O)(=O)Nc2ccccc2Oc2ccccc2)cc1 [Example 54, N-[(3-Dimethylamino-propylcarbamoyl)-methyl]-4-(2-phenoxy-phenylsulfamoyl)-benzamide]
IC50 [1, 3]: < 20 nM | Ki [2, 4]: < 20 nM

SMILES: CC1CCCCN1CCCNC(=O)CNC(=O)c1ccc(S(=O)(=O)Nc2ccccc2Oc2ccc(Cl)cc2Cl)cc1 (stereo not shown) [Example 28, 4-[2-(2,4-Dichloro-phenoxy)-phenylsulfamoyl]-N-{[3-(2-methyl-piperidin-1-yl)-propylcarbamoyl]-methyl}-benzamide]
IC50 [1, 3]: < 20 nM | Ki [2, 4]: < 20 nM

SMILES: O=C(CNC(=O)c1ccc(S(=O)(=O)Nc2cc(F)ccc2Oc2ccc(F)cc2)cc1)NCC1CCNCC1 [Example 15, 4-[5-Fluoro-2-(4-fluoro-phenoxy)-phenylsulfamoyl]-N-{[(piperidin-4-ylmethyl)-carbamoyl]-methyl}-benzamide hydrochloride]
IC50 [1, 3]: < 20 nM | Ki [2, 4]: < 20 nM

SMILES: O=C(CNC(=O)c1ccc(S(=O)(=O)Nc2ccccc2Oc2ccc(Cl)cc2Cl)cc1)NCCCN1CCOCC1 [Example 27, 4-[2-(2,4-Dichloro-phenoxy)-phenylsulfamoyl]-N-[(3-morpholin-4-yl-propylcarbamoyl)-methyl]-benzamide]
IC50 [1, 3]: < 20 nM | Ki [2, 4]: < 20 nM

SMILES: O=C(CNC(=O)c1ccc(S(=O)(=O)Nc2ccccc2Oc2ccc(Cl)cc2Cl)cc1)NC1CCC(N2CCCCC2)CC1 (stereo not shown) [Example 62, 4-[2-(2,4-Dichloro-phenoxy)-phenylsulfamoyl]-N-[(4-piperidin-1-yl-cyclohexyl-carbamoyl)-methyl]-benzamide]
IC50 [1, 3]: < 20 nM | Ki [2, 4]: < 20 nM

SMILES: O=C(CNC(=O)c1ccc(S(=O)(=O)Nc2ccccc2Oc2ccc(Cl)cc2Cl)cc1)NCCN1CCCC1 [Example 31, 4-[2-(2,4-Dichloro-phenoxy)-phenylsulfamoyl]-N-[(2-pyrrolidin-1-yl-ethylcarbamoyl)-methyl]-benzamide]
IC50 [1, 3]: < 20 nM | Ki [2, 4]: < 20 nM

SMILES: CCCN1C(=O)[C@H](NC(=O)Nc2ccc(N3CCC(N4CCCCC4)CC3)cc2)N=C(c2ccc(C)cc2)c2ccccc21 [N-[4-(,4′-bipiperidin)-1′-ylphenyl]-N′-[(3R)-2,3-dihydro-5-(4-methyl-phenyl)-2-oxo-1-propyl-1H-1,4-benzodiazepin-3-yl]-urea, reference compound]
IC50 ([1]; reference compounds, functional test, read-out: IC50): 64.5 nM | Ki ([2]; reference compounds, binding test, read-out: Ki): 13.4 nM

SMILES: O=C(CNC(=O)c1ccc(S(=O)(=O)Nc2ccccc2Oc2ccc(Cl)cc2Cl)cc1)NCC1CCNCC1 [Example 1, 4-[2-(2,4-Dichloro-phenoxy)-phenylsulfamoyl]-N-{[(Piperidin-4-ylmethyl)-carbamoyl]-methyl}-benzamide hydrochloride]
IC50 [1, 3]: < 20 nM | Ki [2, 4]: < 20 nM

Other lines, results leading:

IC50 [1, 3]: < 20 nM | Ki [2, 4]: < 20 nM
SMILES: O=C(CNC(=O)c1ccc(S(=O)(=O)Nc2cc(F)ccc2Oc2ccccc2)cc1)NCC1CCNCC1 [Example 7, 4-(5-Fluoro-2-phenoxy-phenylsulfamoyl)-N-{[(piperidin-4-ylmethyl)-carbamoyl]-methyl}-benzamide hydrochloride]

IC50 [1, 3]: < 20 nM | Ki [2, 4]: < 20 nM
SMILES: O=C(CNC(=O)c1ccc(S(=O)(=O)Nc2ccccc2Oc2ccccc2)cc1)NC1CCNCC1 [Example 66, 4-(2-Phenoxy-phenylsulfamoyl)-N-(piperidin-4-ylcarbamoylmethyl)-benzamide hydrochloride]

IC50 [1, 3]: < 20 nM | Ki [2, 4]: < 20 nM
SMILES: O=C(CNC(=O)c1ccc(S(=O)(=O)Nc2ccccc2Oc2ccccc2)cc1)NCCC1CCNCC1 [Example 10, 4-(2-Phenoxy-phenylsulfamoyl)-N-[(2-piperidin-4-yl-ethylcarbamoyl)-methyl]-benzamide hydrochloride]

IC50 [1, 3]: < 20 nM | Ki [2, 4]: < 20 nM
SMILES: O=C(CNC(=O)c1ccc(S(=O)(=O)Nc2ccccc2Oc2ccc(Br)cc2)cc1)NCC1CCNCC1 [Example 3, 4-[2-(4-Bromo-phenoxy)-phenylsulfamoyl]-N-{[(piperidin-4-ylmethyl)-carbamoyl]-methyl}-benzamide trifluoroacetate]

IC50 [1, 3]: 20 to 100 nM | Ki [2, 4]: 20 to 100 nM
SMILES: O=C(CNC(=O)c1ccc(S(=O)(=O)Nc2ccccc2Oc2ccccc2)cc1)NCC1CCNCC1 [Example 5, 4-(2-Phenoxy-phenylsulfamoyl)-N-{[(piperidin-4-ylmethyl)-carbamoyl]-methyl}-benzamide hydrochloride]
